Data reported in US20100144712A1 (priority 2007, published 2010).
Converted amounts (≈) assume the structure as drawn.

Legend:
Assay type in all cases: cell-based
[1] = system: Candida albican ATCC 96901; assay: In vitro antifungal activity (MIC80), Candida albican ATCC 96901; conditions: Candida, ATCC96901; Table 2, ATCC 96901; read-out: Minimal inhibitory concentration (MIC80)
Protocol: (§1) In vitro antifungal activities of the inventive antifungal compounds were evaluated using test strains including Candida albican (ATCC 90873, 204276, 62342, 64124, 64550, 96901, MYA-573, MYA-574, MYA-575, MYA-576, MYA-1003) and Aspergillus fumigatus (ATCC 16424). Test samples and positive control samples were prepared by dissolving the inventive compounds and comparative compounds, i.e., amphotericin B, fluconazole and itraconazole, in DMSO, respectively, and each successively diluted with medium to obtain test and positive control solutions having test compound concentrations of 0.125 μg/ml to a maximum concentration not generating turbidity. Minimal inhibitory concentration (MIC80) of each compound was determined as the lowest concentration of the test compounds required to reduce growth by 80% relative to a control strain not treated.
(§2) 1) Test strain: Candida albican ATCC 90873, 204276, 62342, 64124, 64550, 96901, MYA-573, MYA-574, MYA-575, MYA-576, MYA-1003, and Aspergillus fumigatus ATCC 16424 were commercially obtained from The American Type Culture Collection (ATCC) and subcultured in CHEMON Co. Ltd. (amphotericin B was commercially purchased from Sigma, and fluconazole and itraconazole were prepared according to methods described in British Patent No. 2,099,818; and U.S. Pat. No. 4,267,179, respectively).
(§3) 2) Medium and culture condition: Candida albican was cultured in Sabourad Dextrose Agar, YM Agar or Potato Dextrose Agar according to ATCC information at a temperature of 37° C., 35° C., 30° C. or 25° C. Aspergillus fumigatus was cultured in Malt Extract Agar or Potato Dextrose Agar at a temperature ranging from 24 to 27° C.
(§4) 3) Preparation of test samples: the inventive compounds and comparative compounds were each diluted with DMSO to obtain 1 to 2 ml of a test sample in a concentration of 100-folds of the determining maximum concentration (256 μg/ml).
(§5) The test samples were each successively diluted with RPMI 1640 to obtain test solutions having concentrations of […] in a 12×75 mm sterilized disposable culture tube. The final concentration of DMSO was adjusted to […] (v/v).
(§6) 5) Preparation of strain solution and inoculation
(§7) Candida albican strains were each subcultured in Sabourad Dextrose Agar, YM Agar or Potato Dextrose Agar medium at 35° C. for 2˜3 days. In the case of yeasts, a single colony was taken from prominent colonies and suspended in 0.85% sterile physiological saline solution and the turbidity of the suspension was adjusted to 80˜82% at 530 nm, and then diluted 50-fold with RPMI 1640 medium to 1.0×10^3˜5.0×10^3 CFU/ml. The turbidity of fungi was adjusted to 80˜82% and the suspension was diluted 50-fold to […]. Aspergillus fumigatus strains were subcultured in Malt Extract Agar for 7˜10 days, and a single colony was taken from prominent colonies and suspended in 0.85% sterile physiological saline solution and the suspension was adjusted to 0.108 at 530 nm, and then diluted 1000-fold with RPMI 1640 medium to 0.4×10^2˜5×10^4 CFU/ml. The turbidity of fungi was adjusted to 80˜82% and the suspension was diluted 50-fold to 0.4102˜0.5104 CFU/ml.
(§8) The strain solutions thus obtained were each seeded into a sterilized 96-well microplate, 0.1 ml of each test solution were added thereto, and […] of alamarblue was treated to each well (Biosource, #DAL1100). This procedure was repeated 2 times.
(§9) Minimal inhibitory concentration (MIC80) of each compound was determined as the lowest concentration of the test compounds required to reduce growth by 80% relative to a control strain not treated.

[2] = system: Candida albican ATCC MYA-575; assay: In vitro antifungal activity (MIC80), Candida albican ATCC MYA-575; conditions: Candida; Table 2, MYA 575; read-out: Minimal inhibitory concentration (MIC80)
Protocol: as §1, §2, §3, §4, §5, §6, §7, §8, §9

[3] = system: Candida albican ATCC MYA-574; assay: In vitro antifungal activity (MIC80), Candida albican ATCC MYA-574; conditions: Candida; Table 2, MYA 574; read-out: Minimal inhibitory concentration (MIC80)
Protocol: as §1, §2, §3, §4, §5, §6, §7, §8, §9

[4] = system: Candida albican ATCC MYA-573; assay: In vitro antifungal activity (MIC80), Candida albican ATCC MYA-573; conditions: Candida; Table 2, MYA 573; read-out: Minimal inhibitory concentration (MIC80)
Protocol: as §1, §2, §3, §4, §5, §6, §7, §8, §9

[5] = system: Candida albican ATCC MYA-576; assay: In vitro antifungal activity (MIC80), Candida albican ATCC MYA-576; conditions: Candida; Table 2, MYA 576; read-out: Minimal inhibitory concentration (MIC80)
Protocol: as §1, §2, §3, §4, §5, §6, §7, §8, §9

[6] = system: Candida albican ATCC 62342; assay: In vitro antifungal activity (MIC80), Candida albican ATCC 62342; conditions: Candida, ATCC62342; Table 2, 62342; read-out: Minimal inhibitory concentration (MIC80)
Protocol: as §1, §2, §3, §4, §5, §6, §7, §8, §9

[7] = system: Candida albican ATCC 64550; assay: In vitro antifungal activity (MIC80), Candida albican ATCC 64550; conditions: Candida, ATCC64550; Table 2, 64550; read-out: Minimal inhibitory concentration (MIC80)
Protocol: as §1, §2, §3, §4, §5, §6, §7, §8, §9

[8] = system: Candida albican ATCC 64124; assay: In vitro antifungal activity (MIC80), Candida albican ATCC 64124; conditions: Candida, ATCC64124; Table 2, 64124; read-out: Minimal inhibitory concentration (MIC80)
Protocol: as §1, §2, §3, §4, §5, §6, §7, §8, §9

[9] = system: Candida albican ATCC MYA-1003; assay: In vitro antifungal activity (MIC80), Candida albican ATCC MYA-1003; conditions: Candida; Table 2, MYA 1003; read-out: Minimal inhibitory concentration (MIC80)
Protocol: as §1, §2, §3, §4, §5, §6, §7, §8, §9

[10] = system: Candida albican ATCC 90873; assay: In vitro antifungal activity (MIC80), Candida albican ATCC 90873; conditions: Candida, ATCC90873; Table 2, ATCC 90873; read-out: Minimal inhibitory concentration (MIC80)
Protocol: as §1, §2, §3, §4, §5, §6, §7, §8, §9

## CC(N1CCCN(c2ccc(C#N)nc2)CC1)C(O)(Cn1cncn1)c1ccc(F)cc1F (stereo not drawn) [Example 39]
[1]
  MIC80: 32 µg/mL (≈ 70.6 µM)
[2]
  MIC80: 0.125 µg/mL (≈ 0.276 µM)
[3]
  MIC80: 2 µg/mL (≈ 4.41 µM)
[4]
  MIC80: 1 µg/mL (≈ 2.21 µM)
[5]
  MIC80: 0.125 µg/mL (≈ 0.276 µM)
[6]
  MIC80: 4 µg/mL (≈ 8.82 µM)
[7]
  MIC80: 2 µg/mL (≈ 4.41 µM)
[8]
  MIC80: 128 µg/mL (≈ 282 µM)
[9]
  MIC80: 16 µg/mL (≈ 35.3 µM)
[10]
  MIC80: 0.125 µg/mL (≈ 0.276 µM)

## C[C@@H](N1CCN(c2ccc(OCc3cccs3)nc2)CC1)[C@](O)(Cn1cncn1)c1ccc(F)cc1F [Example 35, (2R,3R)-2-(2,4-difluorophenyl)-3-(4-(6-(thiophen-2-ylmethoxy)pyridin-3-yl)piperazin-1-yl)-1-(1H-1,2,4-triazol-1-yl)butan-2-ol]
[1]
  MIC80: > 128 µg/mL
[2]
  MIC80: 0.125 µg/mL (≈ 0.237 µM)
[3]
  MIC80: 1 µg/mL (≈ 1.9 µM)
[4]
  MIC80: 0.5 µg/mL (≈ 0.949 µM)
[5]
  MIC80: 0.125 µg/mL (≈ 0.237 µM)
[6]
  MIC80: 0.5 µg/mL (≈ 0.949 µM)
[7]
  MIC80: 1 µg/mL (≈ 1.9 µM)
[8]
  MIC80: 8 µg/mL (≈ 15.2 µM)
[9]
  MIC80: > 128 µg/mL
[10]
  MIC80: 0.125 µg/mL (≈ 0.237 µM)

## C[C@@H](N1CCN(c2cccc(OCCN3CCOCC3)n2)CC1)[C@](O)(Cn1cncn1)c1ccc(F)cc1F [Example 26, (2R,3R)-2-(2,4-difluorophenyl)-3-(4-(6-(2-morpholinoethoxy)pyridin-2-yl)piperazin-1-yl)-1-(1H-1,2,4-triazol-1-yl)butan-2-ol]
[1]
  MIC80: > 128 µg/mL
[2]
  MIC80: 0.5 µg/mL (≈ 0.92 µM)
[3]
  MIC80: 16 µg/mL (≈ 29.4 µM)
[4]
  MIC80: 8 µg/mL (≈ 14.7 µM)
[5]
  MIC80: 0.5 µg/mL (≈ 0.92 µM)
[6]
  MIC80: 4 µg/mL (≈ 7.36 µM)
[7]
  MIC80: 8 µg/mL (≈ 14.7 µM)
[8]
  MIC80: > 128 µg/mL
[9]
  MIC80: > 128 µg/mL
[10]
  MIC80: 0.25 µg/mL (≈ 0.46 µM)

## C[C@@H](N1CCN(c2ccc(OCC3CC3)nc2)CC1)[C@](O)(Cn1cncn1)c1ccc(F)cc1F [Example 30, (2R,3R)-3-(4-(6-(cyclopropylmethoxy)pyridin-3-yl)piperazin-1-yl)-2-(2,4-difluorophenyl)-1-(1H-1,2,4-triazol-1-yl)butan-2-ol]
[1]
  MIC80: 32 µg/mL (≈ 66 µM)
[2]
  MIC80: 0.125 µg/mL (≈ 0.258 µM)
[3]
  MIC80: 4 µg/mL (≈ 8.26 µM)
[4]
  MIC80: 1 µg/mL (≈ 2.06 µM)
[5]
  MIC80: 0.125 µg/mL (≈ 0.258 µM)
[6]
  MIC80: 1 µg/mL (≈ 2.06 µM)
[7]
  MIC80: 1 µg/mL (≈ 2.06 µM)
[8]
  MIC80: 32 µg/mL (≈ 66 µM)
[9]
  MIC80: > 128 µg/mL
[10]
  MIC80: 0.125 µg/mL (≈ 0.258 µM)

## CC(N1CCN(c2ccc(N(C)CCc3cccs3)nc2)CC1)C(O)(Cn1cncn1)c1ccc(F)cc1F (stereo not drawn) [Example 37]
[1]
  MIC80: > 128 µg/mL
[2]
  MIC80: 0.5 µg/mL (≈ 0.903 µM)
[3]
  MIC80: 2 µg/mL (≈ 3.61 µM)
[4]
  MIC80: 1 µg/mL (≈ 1.81 µM)
[5]
  MIC80: 0.5 µg/mL (≈ 0.903 µM)
[6]
  MIC80: 1 µg/mL (≈ 1.81 µM)
[7]
  MIC80: 4 µg/mL (≈ 7.22 µM)
[8]
  MIC80: 32 µg/mL (≈ 57.8 µM)
[9]
  MIC80: > 128 µg/mL
[10]
  MIC80: 0.125 µg/mL (≈ 0.226 µM)

## C[C@@H](N1CCN(c2cccc(N(C)CCCN3CCOCC3)n2)CC1)[C@](O)(Cn1cncn1)c1ccc(F)cc1F [Example 27, (2R,3R)-2-(2,4-difluorophenyl)-3-(4-(6-(methyl(3-morpholinopropyl)amino)pyridin-2-yl)piperazin-1-yl)-1-(1H-1,2,4-triazol-1-yl)butan-2-ol]
[1]
  MIC80: 16 µg/mL (≈ 28 µM)
[2]
  MIC80: 1 µg/mL (≈ 1.75 µM)
[3]
  MIC80: 8 µg/mL (≈ 14 µM)
[4]
  MIC80: 4 µg/mL (≈ 7.01 µM)
[5]
  MIC80: 0.5 µg/mL (≈ 0.876 µM)
[6]
  MIC80: 2 µg/mL (≈ 3.5 µM)
[7]
  MIC80: 4 µg/mL (≈ 7.01 µM)
[8]
  MIC80: 32 µg/mL (≈ 56.1 µM)
[9]
  MIC80: 64 µg/mL (≈ 112 µM)
[10]
  MIC80: 0.25 µg/mL (≈ 0.438 µM)
